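Cultured in 96-well plates, cells were exposed to test compound for 48 hours across five concentrations. At the GI50, growth is halved. TGI is the concentration that stops growth completely.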
How the values were obtained:
Assay in all cases: DTP human tumour cell line panel, 48 h; in the data active = GI50 below about 0.43 µM; inactive = the rest
SF-539 CNS = tested on: SF-539 CNS
SR leukemia = tested on: SR leukemia
SNB-75 CNS = tested on: SNB-75 CNS
MDA-MB-231 breast = tested on: MDA-MB-231 breast
MCF7 breast = tested on: MCF7 breast
NCI/ADR-RES ovarian = tested on: NCI/ADR-RES ovarian
SNB-19 CNS = tested on: SNB-19 CNS
OVCAR-5 ovarian = tested on: OVCAR-5 ovarian
SK-MEL-5 melanoma = tested on: SK-MEL-5 melanoma
HCC-2998 colon = tested on: HCC-2998 colon
PC-3 prostate = tested on: PC-3 prostate
A549 NSCLC = tested on: A549 NSCLC
SF-295 CNS = tested on: SF-295 CNS
KM12 colon = tested on: KM12 colon
RXF 393 renal = tested on: RXF 393 renal
HS 578T breast = tested on: HS 578T breast
HT29 colon = tested on: HT29 colon
M14 melanoma = tested on: M14 melanoma
U251 CNS = tested on: U251 CNS
786-0 renal = tested on: 786-0 renal
OVCAR-3 ovarian = tested on: OVCAR-3 ovarian
HCT-116 colon = tested on: HCT-116 colon
NCI-H522 lung = tested on: NCI-H522 lung
A498 renal = tested on: A498 renal
K-562 leukemia = tested on: K-562 leukemia
LOX IMVI melanoma = tested on: LOX IMVI melanoma
RPMI-8226 leukemia = tested on: RPMI-8226 leukemia
COLO 205 colon = tested on: COLO 205 colon
OVCAR-8 ovarian = tested on: OVCAR-8 ovarian
T-47D breast = tested on: T-47D breast
MDA-MB-435 = tested on: MDA-MB-435
SK-MEL-2 melanoma = tested on: SK-MEL-2 melanoma
ACHN renal = tested on: ACHN renal
UACC-62 melanoma = tested on: UACC-62 melanoma
SK-OV-3 ovarian = tested on: SK-OV-3 ovarian
UO-31 renal = tested on: UO-31 renal
MOLT-4 leukemia = tested on: MOLT-4 leukemia
MALME-3M melanoma = tested on: MALME-3M melanoma
CAKI-1 renal = tested on: CAKI-1 renal
NCI-H460 lung = tested on: NCI-H460 lung
OVCAR-4 ovarian = tested on: OVCAR-4 ovarian
BT-549 breast = tested on: BT-549 breast
SK-MEL-28 melanoma = tested on: SK-MEL-28 melanoma
SN12C renal = tested on: SN12C renal
UACC-257 melanoma = tested on: UACC-257 melanoma
HCT-15 colon = tested on: HCT-15 colon
CCRF-CEM leukemia = tested on: CCRF-CEM leukemia
NCI-H226 lung = tested on: NCI-H226 lung
IGROV1 ovarian = tested on: IGROV1 ovarian
HOP-62 NSCLC = tested on: HOP-62 NSCLC
NCI-H23 lung = tested on: NCI-H23 lung
SF-268 CNS = tested on: SF-268 CNS
DU-145 prostate = tested on: DU-145 prostate
SW-620 colon = tested on: SW-620 colon
EKVX NSCLC = tested on: EKVX NSCLC
TK-10 renal = tested on: TK-10 renal
HL-60(TB) leukemia = tested on: HL-60(TB) leukemia

O=C(O)c1ccc(NS(=O)(=O)c2cccc3cccnc23)cc1
inactive: GI50 (SF-539 CNS) > 100 µM | GI50 (SR leukemia) > 100 µM | GI50 (SNB-75 CNS) > 100 µM | GI50 (MDA-MB-231 breast) > 100 µM | GI50 (MCF7 breast) > 100 µM | GI50 (NCI/ADR-RES ovarian) > 100 µM | GI50 (SNB-19 CNS) > 100 µM | GI50 (OVCAR-5 ovarian) > 100 µM | GI50 (SK-MEL-5 melanoma) > 100 µM | GI50 (HCC-2998 colon) > 100 µM | GI50 (PC-3 prostate) > 100 µM | GI50 (A549 NSCLC) > 100 µM | GI50 (SF-295 CNS) > 100 µM | GI50 (KM12 colon) > 100 µM | GI50 (RXF 393 renal) > 100 µM | GI50 (HS 578T breast) > 100 µM | GI50 (HT29 colon) > 100 µM | GI50 (M14 melanoma) > 100 µM | GI50 (U251 CNS) > 100 µM | GI50 (786-0 renal) > 100 µM | GI50 (OVCAR-3 ovarian) > 100 µM | GI50 (HCT-116 colon) > 100 µM | GI50 (NCI-H522 lung) > 100 µM | GI50 (A498 renal) > 100 µM | GI50 (K-562 leukemia) > 100 µM | GI50 (LOX IMVI melanoma) > 100 µM | GI50 (RPMI-8226 leukemia) > 100 µM | GI50 (COLO 205 colon) > 100 µM | GI50 (OVCAR-8 ovarian) > 100 µM | GI50 (T-47D breast) > 100 µM | GI50 (MDA-MB-435) > 100 µM | GI50 (SK-MEL-2 melanoma) > 100 µM | GI50 (ACHN renal) > 100 µM | GI50 (UACC-62 melanoma) > 100 µM | GI50 (SK-OV-3 ovarian) > 100 µM | GI50 (UO-31 renal) > 100 µM | GI50 (MOLT-4 leukemia) > 100 µM | GI50 (MALME-3M melanoma) > 100 µM | GI50 (CAKI-1 renal) > 100 µM | GI50 (NCI-H460 lung) > 100 µM | GI50 (OVCAR-4 ovarian) > 100 µM | GI50 (BT-549 breast) > 100 µM | GI50 (SK-MEL-28 melanoma) > 100 µM | GI50 (SN12C renal) > 100 µM | GI50 (UACC-257 melanoma) > 100 µM | GI50 (HCT-15 colon) > 100 µM | GI50 (CCRF-CEM leukemia) > 100 µM | GI50 (NCI-H226 lung) > 100 µM | GI50 (IGROV1 ovarian) > 100 µM | GI50 (HOP-62 NSCLC) > 100 µM | GI50 (NCI-H23 lung) > 100 µM | GI50 (SF-268 CNS) > 100 µM | GI50 (DU-145 prostate) > 100 µM | GI50 (SW-620 colon) > 100 µM
> 100 µM: TGI (SF-539 CNS) | TGI (SR leukemia) | TGI (SNB-75 CNS) | TGI (MDA-MB-231 breast) | TGI (MCF7 breast) | TGI (NCI/ADR-RES ovarian) | TGI (SNB-19 CNS) | TGI (OVCAR-5 ovarian) | TGI (SK-MEL-5 melanoma) | TGI (HCC-2998 colon) | TGI (PC-3 prostate) | TGI (A549 NSCLC) | TGI (SF-295 CNS) | TGI (KM12 colon) | TGI (RXF 393 renal) | TGI (HS 578T breast) | TGI (HT29 colon) | TGI (M14 melanoma) | TGI (U251 CNS) | TGI (786-0 renal) | TGI (OVCAR-3 ovarian) | TGI (HCT-116 colon) | TGI (NCI-H522 lung) | TGI (A498 renal) | TGI (K-562 leukemia) | TGI (LOX IMVI melanoma) | TGI (RPMI-8226 leukemia) | TGI (COLO 205 colon) | TGI (OVCAR-8 ovarian) | TGI (T-47D breast) | TGI (MDA-MB-435) | TGI (SK-MEL-2 melanoma) | TGI (ACHN renal) | TGI (UACC-62 melanoma) | TGI (SK-OV-3 ovarian) | TGI (UO-31 renal) | TGI (MOLT-4 leukemia) | TGI (MALME-3M melanoma) | TGI (CAKI-1 renal) | TGI (NCI-H460 lung) | TGI (OVCAR-4 ovarian) | TGI (BT-549 breast) | TGI (SK-MEL-28 melanoma) | TGI (SN12C renal) | TGI (UACC-257 melanoma) | TGI (HCT-15 colon) | TGI (CCRF-CEM leukemia) | TGI (NCI-H226 lung) | TGI (IGROV1 ovarian) | TGI (HOP-62 NSCLC) | TGI (NCI-H23 lung) | TGI (SF-268 CNS) | TGI (DU-145 prostate) | TGI (SW-620 colon)

CCOC(=O)c1ccc(Nc2nc3ccc(C(F)(F)F)cc3nc2-c2ccccc2)cc1
74.5 µM: TGI (UACC-62 melanoma)
> 100 µM: TGI (SF-539 CNS) | TGI (SR leukemia) | TGI (SNB-75 CNS) | TGI (MCF7 breast) | TGI (NCI/ADR-RES ovarian) | TGI (SNB-19 CNS) | TGI (OVCAR-5 ovarian) | TGI (SK-MEL-5 melanoma) | TGI (HCC-2998 colon) | TGI (PC-3 prostate) | TGI (A549 NSCLC) | TGI (SF-295 CNS) | TGI (KM12 colon) | TGI (RXF 393 renal) | TGI (HS 578T breast) | TGI (HT29 colon) | TGI (EKVX NSCLC) | TGI (M14 melanoma) | TGI (TK-10 renal) | TGI (U251 CNS) | TGI (786-0 renal) | TGI (OVCAR-3 ovarian) | TGI (HCT-116 colon) | TGI (NCI-H522 lung) | TGI (K-562 leukemia) | TGI (LOX IMVI melanoma) | TGI (RPMI-8226 leukemia) | TGI (OVCAR-8 ovarian) | TGI (MDA-MB-435) | TGI (ACHN renal) | TGI (UO-31 renal) | TGI (MOLT-4 leukemia) | TGI (MALME-3M melanoma) | TGI (CAKI-1 renal) | TGI (NCI-H460 lung) | TGI (SK-MEL-28 melanoma) | TGI (SN12C renal) | TGI (UACC-257 melanoma) | TGI (HCT-15 colon) | TGI (CCRF-CEM leukemia) | TGI (NCI-H226 lung) | TGI (IGROV1 ovarian) | TGI (HOP-62 NSCLC) | TGI (NCI-H23 lung) | TGI (SF-268 CNS) | TGI (DU-145 prostate) | TGI (HL-60(TB) leukemia) | TGI (SW-620 colon)
87.1 µM: TGI (T-47D breast)

Source: PubChem BioAssay (NCI)
